The subject of series [1] is L1210. As to the kind of experiment: Antitumor activity against mouse L1210 cells […] in ip dosed C3H X DBA2 F1 hybrid mouse on day 0 and dosed at LD10 level once daily on days 1 to 5 assessed as increase in life span relative to control. It is filed as functional.
For series [2], the system named is Mus musculus. Description: Toxicity in ip dosed C3H X DBA2 F1 hybrid mouse […] with mouse L1210 cells on day 0 and dosed once daily on days 1 to 5 measured after 50 days. It is filed as organism-based. The following applies: in vivo, 1200 h.
A short description of series [3]: Lipophilic-hydrophilic balance, Rm of the compound by partition chromatography. It is filed as physicochemical.

Experimental findings from ChEMBL document CHEMBL3228010, “Potential antitumor agents. 29. Quantitative structure-activity relationships for the antileukemic bisquaternary ammonium heterocycles” (J Med Chem, 1979) are described below.

Structures are written as SMILES.

With `CC[n+]1ccccc1Nc1ccc(NC(=O)c2ccc(C(=O)Nc3ccc(Nc4cccc[n+]4CC)cc3)cc2)cc1.[I-].[I-]`, the “log(ILSmax)” value in series [1] is below 1.4. This compound came in with an LD10 in series [2] of 16 mg/kg. Besides, in series [3], the Rm is listed as 0.53.
With `C[n+]1cccc2cc(NC(=O)c3ccc(C(=O)Nc4ccc5c(ccc[n+]5C)c4)cc3)ccc21.Cc1ccc(S(=O)(=O)[O-])cc1.Cc1ccc(S(=O)(=O)[O-])cc1`, the “log(ILSmax)” value in series [1] is below 1.4. In series [2], this compound registered an LD10 of 5 mg/kg. In series [3], this compound showed a Rm of -0.21.
Take `CC[n+]1ccc(Nc2ccc(NC(=O)CCCCCC(=O)Nc3ccc(Nc4cc[n+](CC)cc4)cc3)cc2)cc1.[O-][Cl+3]([O-])([O-])[O-].[O-][Cl+3]([O-])([O-])[O-]`: the “log(ILSmax)” value in series [1] is given as below 1.4. In series [2], this compound came in with an LD10 of 20 mg/kg. For the same compound, the Rm in series [3] is given as 0.69.
As to `CCC[n+]1ccccc1Nc1ccc(NC(=O)c2ccc(C(=O)Nc3ccc(Nc4cccc[n+]4CCC)cc3)cc2)cc1.Cc1ccc(S(=O)(=O)[O-])cc1.Cc1ccc(S(=O)(=O)[O-])cc1`, in series [1], the “log(ILSmax)” value is on record as below 1.4. This compound had an LD10 in series [2] of 100 mg/kg. In series [3], this compound displayed a Rm of 0.71.
The like results for `CCOCC[n+]1cccc2cc(NC(=O)c3ccc(C(=O)Nc4ccc5c(ccc[n+]5CCOCC)c4)cc3)ccc21.Cc1ccc(S(=O)(=O)[O-])cc1.Cc1ccc(S(=O)(=O)[O-])cc1` were, in that order, below 1.4, 20 mg/kg and 0.8.
Turning to `CCC[n+]1cccc(NC(=O)c2ccc(NC(=O)c3ccc(C(=O)Nc4ccc[n+](CCC)c4)cc3)cc2)c1.Cc1ccc(S(=O)(=O)[O-])cc1.Cc1ccc(S(=O)(=O)[O-])cc1`, the “log(ILSmax)” value in series [1] is recorded as below 1.4. This compound also returned an LD10 in series [2] of 15 mg/kg. Also, the Rm in series [3] was 0.65.
Regarding `CC[n+]1ccc(Nc2ccc(NC(=O)c3ccc(Nc4cc[n+](CC)c5ccccc45)cc3N)cc2N)cc1.[I-].[I-]`, in series [1], the “log(ILSmax)” value is below 1.4. Moreover, in series [2], the LD10 came out at 20 mg/kg. Besides, the Rm in series [3] came out at 0.35.
The matching figures for `CC[n+]1cccc(NC(=O)c2ccc(NC(=O)c3ccc(C(=O)Nc4ccc[n+](CC)c4)cc3)cc2)c1.Cc1ccc(S(=O)(=O)[O-])cc1.Cc1ccc(S(=O)(=O)[O-])cc1`: below 1.4, 8 mg/kg and 0.3.
For `CCC[n+]1cccc(NC(=O)c2ccc(NC(=O)c3ccc(C(=O)Nc4ccc(C(=O)Nc5ccc[n+](CCC)c5)cc4)c(C)c3)cc2)c1.Cc1ccc(S(=O)(=O)[O-])cc1.Cc1ccc(S(=O)(=O)[O-])cc1`, the “log(ILSmax)” value in series [1] was below 1.4. The compound further gave an LD10 in series [2] of 30 mg/kg. Also, the Rm in series [3] is listed as 0.75.
Turning to `CCCC[n+]1cccc2cc(NC(=O)c3ccc(NC(=O)c4ccc5c(ccc[n+]5CCCC)c4)cc3)ccc21.Cc1ccc(S(=O)(=O)[O-])cc1.Cc1ccc(S(=O)(=O)[O-])cc1`, the “log(ILSmax)” value in series [1] is below 1.4. In addition, in series [2], the LD10 was determined as 200 mg/kg. This compound had a Rm in series [3] of 0.59.
As for `C[n+]1cccc2cc(NC(=O)Cc3ccc(CC(=O)Nc4ccc5c(ccc[n+]5C)c4)cc3)ccc21.Cc1ccc(S(=O)(=O)[O-])cc1.Cc1ccc(S(=O)(=O)[O-])cc1`, the Rm in series [3] was 0.07.
Take `C[n+]1cccc2cc(NC(=O)c3ccc(C(=O)Nc4ccc5c(ccc[n+]5C)c4)nc3)ccc21.Cc1ccc(S(=O)(=O)[O-])cc1.Cc1ccc(S(=O)(=O)[O-])cc1`: in series [1], the “log(ILSmax)” value was below 1.4. In series [2], this compound registered an LD10 of 4 mg/kg. Moreover, in series [3], the Rm was -0.4.
The compound `CCCC[n+]1cccc2cc(NC(=O)Cc3ccc(CC(=O)Nc4ccc5c(ccc[n+]5CCCC)c4)cc3)ccc21.Cc1ccc(S(=O)(=O)[O-])cc1.Cc1ccc(S(=O)(=O)[O-])cc1` showed a Rm in series [3] of 0.92.
In series [3], `CC(=NNC(=N)N)c1ccc(NC(=O)c2ccc(C(=O)Nc3ccc(Nc4cc[n+](C)cc4)cc3)cc2)cc1.Cc1ccc(S(=O)(=O)O)cc1.Cc1ccc(S(=O)(=O)[O-])cc1` showed a Rm of -0.15.
